Experimental data reported in patent US12263172B2, “Toll-like receptor agonists for use in the treatment of hepatitis b” (priority 2019, dated 2025).
Values joined by “and” are separate entries in the source; they are usually repeats but may differ in a detail not shown here. Identical values can stand only once.

Test: Phase 1 single-ascending dose (Part 1): safety and tolerability in healthy adults
Format: in vivo, human
Method: This ongoing trial is a Phase 1 randomized, double-blind, placebo-controlled study in male and female healthy adult volunteers aged 18-55 years. All volunteers provided written, informed consent.
All volunteers were followed up for 4 weeks and safety and tolerability were continuously assessed throughout the study. All adverse events (AEs) were recorded from the time of consent to the completion visit and were graded using the DAIDS toxicity grading scale. Volunteers also underwent physical examinations, electrocardiograms, vital sign checks and clinical laboratory parameters (chemistry, haematology, urinalysis).

CCCCOc1nc(N)c2[nH]cc(Cc3ccc(CN4CCCC4)cc3)c2n1 [Compound 4]
2 (33.3%) n (%): lab toxicity: LDL cholesterol (mmol/L, calculated), upwards, Grade 1 (single dose 0.6 mg fasted) | lab toxicity: Sodium (mmol/L), upwards, Grade 1 (single dose 0.6 mg fasted)
1 (17) n (%): ↑ Creatine kinase Grade 2 (laboratory abnormality) (single dose 0.6 mg fasted) | ↑ Glucose Grade 2 (laboratory abnormality) (single dose 0.6 mg fasted) | ↑ LDL cholesterol Grade 2 (laboratory abnormality) (single dose 0.6 mg fasted) | ↑ Sodium Grade 2 (laboratory abnormality) (single dose 0.6 mg fasted)
4 (66.7%) n (%): lab toxicity: Triglycerides (mmol/L), upwards, Grade 1 (single dose 0.6 mg fasted) | vital signs: SaO2 (%) 95% to <98% (single dose 0.6 mg fasted)
0 n (%): lab toxicity: Cholesterol (mmol/L), upwards, Grade 2 (single dose 0.6 mg fasted) | lab toxicity: Creatine kinase (U/L), upwards, Grade 1 (single dose 0.6 mg fasted) | lab toxicity: Creatine kinase (U/L), upwards, Grade 4 (single dose 0.6 mg fasted) | lab toxicity: LDL cholesterol (mmol/L, calculated), upwards, Grade 3 (single dose 0.6 mg fasted) | lab toxicity: Lymphocytes (giga/L), downwards, Grade 2 (single dose 0.6 mg fasted) | lab toxicity: Lymphocytes (giga/L), downwards, Grade 4 (single dose 0.6 mg fasted) | lab toxicity: Neutrophils, segmented (giga/L), downwards, Grade 1 (single dose 0.6 mg fasted) | lab toxicity: Neutrophils, segmented (giga/L), downwards, Grade 2 (single dose 0.6 mg fasted) | lab toxicity: Platelets (giga/L), downwards, Grade 1 (single dose 0.6 mg fasted) | lab toxicity: Triglycerides (mmol/L), upwards, Grade 2 (single dose 0.6 mg fasted) | lab toxicity: Triglycerides (mmol/L), upwards, Grade 3 (single dose 0.6 mg fasted) | lab toxicity: Urate (μmol/L), upwards, Grade 1 (single dose 0.6 mg fasted) | subjects with at least one AE for which any study drug or study was permanently stopped (single dose 0.6 mg fasted) | subjects with at least one AE for which any study drug or study was temporarily stopped (single dose 0.6 mg fasted) | subjects with at least one AE probably related to any study drug (single dose 0.6 mg fasted) | subjects with at least one AE very likely related to any study drug (single dose 0.6 mg fasted) | subjects with at least one SAE (single dose 0.6 mg fasted) | subjects with at least one fatal AE (single dose 0.6 mg fasted) | subjects with at least one grade 2 AE (single dose 0.6 mg fasted) | subjects with at least one grade 3 or 4 AE (single dose 0.6 mg fasted) | treatment-related AE: Chills (single dose 0.6 mg fasted) | treatment-related AE: Dizziness (single dose 0.6 mg fasted) | treatment-related AE: General disorders and administration site conditions (single dose 0.6 mg fasted) | treatment-related AE: Headache (single dose 0.6 mg fasted) | treatment-related AE: Hypertension (single dose 0.6 mg fasted) | treatment-related AE: Myalgia (single dose 0.6 mg fasted) | treatment-related AE: Nervous system disorders (single dose 0.6 mg fasted) | treatment-related AE: Oropharyngeal pain (single dose 0.6 mg fasted) | treatment-related AE: Pyrexia (single dose 0.6 mg fasted) | treatment-related AE: Vascular disorder (single dose 0.6 mg fasted) | vital signs: Respiratory rate (brpm) Grade 2 (single dose 0.6 mg fasted) | vital signs: SaO2 (%) 90% to <95% (single dose 0.6 mg fasted) | vital signs: Standing DBP (mmHg) Grade 1 (single dose 0.6 mg fasted) | vital signs: Standing DBP (mmHg) Grade 2 (single dose 0.6 mg fasted) | vital signs: Standing DBP (mmHg) Grade 3 (single dose 0.6 mg fasted) | vital signs: Standing DBP (mmHg) Low (single dose 0.6 mg fasted) | vital signs: Standing SBP (mmHg) Low (single dose 0.6 mg fasted) | vital signs: Standing pulse (bpm) High (single dose 0.6 mg fasted) | vital signs: Standing pulse (bpm) Low (single dose 0.6 mg fasted) | vital signs: Supine DBP (mmHg) Grade 1 (single dose 0.6 mg fasted) | vital signs: Supine SBP (mmHg) Grade 2 (single dose 0.6 mg fasted) | vital signs: Supine SBP (mmHg) Low (single dose 0.6 mg fasted) | ↑ AST Grade 3 (laboratory abnormality) (single dose 0.6 mg fasted) | ↑ Amylase Grade 2 (laboratory abnormality) (single dose 0.6 mg fasted) | ↑ Cholesterol Grade 2 (laboratory abnormality) (single dose 0.6 mg fasted) | ↑ Creatine kinase Grade 4 (laboratory abnormality) (single dose 0.6 mg fasted) | ↑ LDL cholesterol Grade 3 (laboratory abnormality) (single dose 0.6 mg fasted) | ↑ Lipase Grade 2 (laboratory abnormality) (single dose 0.6 mg fasted) | ↑ Pancreatic amylase Grade 2 (laboratory abnormality) (single dose 0.6 mg fasted) | ↑ Potassium Grade 2 (laboratory abnormality) (single dose 0.6 mg fasted) | ↑ Triglycerides Grade 2 (laboratory abnormality) (single dose 0.6 mg fasted) | ↑ Triglycerides Grade 3 (laboratory abnormality) (single dose 0.6 mg fasted) | ↓ Bicarbonate Grade 2 (laboratory abnormality) (single dose 0.6 mg fasted) | ↓ GFR Grade 2 (laboratory abnormality) (single dose 0.6 mg fasted) | ↓ Lymphocytes Grade 2 (laboratory abnormality) (single dose 0.6 mg fasted) | ↓ Lymphocytes Grade 4 (laboratory abnormality) (single dose 0.6 mg fasted) | ↓ Neutrophils Grade 2 (laboratory abnormality) (single dose 0.6 mg fasted) | ↓ Phosphate Grade 2 (laboratory abnormality) (single dose 0.6 mg fasted) | Chills Grade 1 (treatment-emergent AE) (single dose 1.25 mg fasted) | Contact dermatitis Grade 1 (treatment-emergent AE) (single dose 1.25 mg fasted) | Dizziness Grade 1 (treatment-emergent AE) (single dose 1.25 mg fasted) | ECG actual value: Heart rate (bpm) Low (single dose 1.25 mg fasted) | Headache Grade 2 (treatment-emergent AE) (single dose 1.25 mg fasted) | Hypertension Grade 1 (treatment-emergent AE) (single dose 1.25 mg fasted) | Hypertension Grade 2 (treatment-emergent AE) (single dose 1.25 mg fasted) | lab toxicity: Amylase (U/L), upwards, Grade 2 (single dose 1.25 mg fasted) | lab toxicity: Cholesterol (mmol/L), upwards, Grade 2 (single dose 1.25 mg fasted) | lab toxicity: Creatine kinase (U/L), upwards, Grade 1 (single dose 1.25 mg fasted) | lab toxicity: Creatine kinase (U/L), upwards, Grade 2 (single dose 1.25 mg fasted) | lab toxicity: Creatine kinase (U/L), upwards, Grade 4 (single dose 1.25 mg fasted) | lab toxicity: LDL cholesterol (mmol/L, calculated), upwards, Grade 1 (single dose 1.25 mg fasted) | lab toxicity: LDL cholesterol (mmol/L, calculated), upwards, Grade 2 (single dose 1.25 mg fasted) | lab toxicity: Lymphocytes (giga/L), downwards, Grade 4 (single dose 1.25 mg fasted) | lab toxicity: Neutrophils, segmented (giga/L), downwards, Grade 2 (single dose 1.25 mg fasted) | lab toxicity: Triglycerides (mmol/L), upwards, Grade 3 (single dose 1.25 mg fasted) | lab toxicity: Urate (μmol/L), upwards, Grade 1 (single dose 1.25 mg fasted) | subjects with at least one AE for which any study drug or study was temporarily stopped (single dose 1.25 mg fasted) | subjects with at least one AE very likely related to any study drug (single dose 1.25 mg fasted)
6 (75.0%) n (%): subjects with at least one AE possibly, probably or very likely related to any study drug (single dose 1.25 mg fasted)
2 (25.0%) n (%): lab toxicity: Neutrophils, segmented (giga/L), downwards, Grade 1 (single dose 1.25 mg fasted) | lab toxicity: Sodium (mmol/L), upwards, Grade 1 (single dose 1.25 mg fasted)
1 (16.7%) n (%): lab toxicity: Creatine kinase (U/L), upwards, Grade 2 (single dose 0.6 mg fasted) | lab toxicity: Glucose (mmol/L), upwards, Grade 1 (single dose 0.6 mg fasted) | lab toxicity: Glucose (mmol/L), upwards, Grade 2 (single dose 0.6 mg fasted) | lab toxicity: LDL cholesterol (mmol/L, calculated), upwards, Grade 2 (single dose 0.6 mg fasted) | lab toxicity: Sodium (mmol/L), upwards, Grade 2 (single dose 0.6 mg fasted) | subjects with at least one AE possibly related to any study drug (single dose 0.6 mg fasted) | subjects with at least one AE possibly, probably or very likely related to any study drug (single dose 0.6 mg fasted) | treatment-related AE: Any AE (single dose 0.6 mg fasted) | treatment-related AE: Respiratory, thoracic and mediastinal disorders (single dose 0.6 mg fasted) | vital signs: Standing SBP (mmHg) Grade 1 (single dose 0.6 mg fasted) | vital signs: Supine DBP (mmHg) Low (single dose 0.6 mg fasted) | vital signs: Supine SBP (mmHg) Grade 1 (single dose 0.6 mg fasted) | vital signs: Supine pulse (bpm) Low (single dose 0.6 mg fasted)
2 (25) n (%): Oropharyngeal pain Grade 1 (treatment-emergent AE) (single dose 1.25 mg fasted) | Pyrexia Grade 1 (treatment-emergent AE) (single dose 1.25 mg fasted) | URTI Grade 1 (treatment-emergent AE) (single dose 1.25 mg fasted)
1 (13) n (%): Back pain Grade 1 (treatment-emergent AE) (single dose 1.25 mg fasted) | Pyrexia Grade 2 (treatment-emergent AE) (single dose 1.25 mg fasted)
8 (100%) n (%): subjects with at least one AE (single dose 1.25 mg fasted)
1 (12.5%) n (%): ECG actual value: QRS (ms) High (single dose 1.25 mg fasted) | ECG actual value: QTcB (ms) ]450; 480] (single dose 1.25 mg fasted) | ECG actual value: QTcF (ms) ]450; 480] (single dose 1.25 mg fasted) | lab toxicity: Amylase (U/L), upwards, Grade 1 (single dose 1.25 mg fasted) | lab toxicity: Cholesterol (mmol/L), upwards, Grade 1 (single dose 1.25 mg fasted) | lab toxicity: Glucose (mmol/L), upwards, Grade 2 (single dose 1.25 mg fasted) | lab toxicity: LDL cholesterol (mmol/L, calculated), upwards, Grade 3 (single dose 1.25 mg fasted) | lab toxicity: Lymphocytes (giga/L), downwards, Grade 2 (single dose 1.25 mg fasted) | lab toxicity: Platelets (giga/L), downwards, Grade 1 (single dose 1.25 mg fasted) | lab toxicity: Sodium (mmol/L), upwards, Grade 2 (single dose 1.25 mg fasted) | subjects with Grade 2 treatment-related AEs (pyrexia) (single dose 1.25 mg fasted) | subjects with at least one AE for which any study drug or study was permanently stopped (single dose 1.25 mg fasted)
3 (38) n (%): Myalgia Grade 1 (treatment-emergent AE) (single dose 1.25 mg fasted)
3 (37.5%) n (%): subjects with myalgia (AE) (single dose 1.25 mg) | subjects with pyrexia (AE) (single dose 1.25 mg) | lab toxicity: Glucose (mmol/L), upwards, Grade 1 (single dose 1.25 mg fasted) | lab toxicity: Triglycerides (mmol/L), upwards, Grade 1 (single dose 1.25 mg fasted) | subjects with at least one AE probably related to any study drug (single dose 1.25 mg fasted)
3 (37.5%) n (%) and 3 (37.5%)^a n (%): ECG change from reference: QTcB (ms) [30; 60] (single dose 1.25 mg fasted)
4 (50) n (%): Headache Grade 1 (treatment-emergent AE) (single dose 1.25 mg fasted)
1 (12.5%) n (%) and 1 (12.5%)^a n (%): ECG change from reference: QTcF (ms) [30; 60] (single dose 1.25 mg fasted)
4 (50.0%) n (%): subjects with headache (AE) (single dose 1.25 mg) | lab toxicity: Triglycerides (mmol/L), upwards, Grade 2 (single dose 1.25 mg fasted)
8 (100) n (%): Any AE (treatment-emergent) (single dose 1.25 mg fasted)
3 (50.0%) n (%): subjects with at least one AE (single dose 0.6 mg fasted) | subjects with at least one grade 1 AE (single dose 0.6 mg fasted) | vital signs: Respiratory rate (brpm) Grade 1 (single dose 0.6 mg fasted)
5 (62.5%) n (%): subjects with at least one AE possibly related to any study drug (single dose 1.25 mg fasted)
